Patent publication US7666635B2, “Process for the preparation of amides” (priority 1997, dated 2010)
Where two headings read alike, the source gives them in different places.

What was measured:
[1] = tested on: nitrile hydratase of NA40; assay: Determination of the KM value (Lineweaver-Burk diagram); type: biochemical, Amycolatopsis NA40; details: substance as substrate; 20 ° C., 45 mM phosphate buffer, pH 7.0
Experimental: The KM value was determined to be 41.7 mM for 3-cyanopyridine and to be 3.7 mM for acrylonitrile by means of the Lineweaver-Burk diagram. […] This is one of the main advantages of NA40.

Rhodoccus rhodochrous J1 = assay: Tolerance of 3-cyanopyridine on the activity of resting cells; type: cell-based, Rhodococcus rhodochrous J1; details: substrate concentration of 2% (w/v), resting cells 15 min at 20° C.
Experimental: (§1) In order to test the tolerance of 3-cyanopyridine, resting cells were incubated for 15 min at 20° C. at concentrations of 3-cyanopyridine between 1 and 10% (w/v) and the cells were then removed by centrifugation. After washing the cells with 0.85% NaCl, the remaining activity was measured.
(§2) The tolerance of 3-cyanopyridine as a substrate was tested at various substrate concentrations.

[2] = tested on: purified nitrile hydratase from NA40; assay: Substrate specificity of the purified nitrile hydratase; type: biochemical, Amycolatopsis NA40
Experimental: The substrate specificity was determined analogously to Example 2 (1).
1.7 Units of enzyme were added to the reaction mixture (2.0 ml). The reaction mixture contained the respective substrate in 45 mM phosphate buffer (pH 7.0).

Rhodoccus GF376 = assay: Tolerance of 3-cyanopyridine on the activity of resting cells; type: cell-based, Rhodococcus GF376; details: substrate concentration of 10% (w/v), resting cells 15 min at 20° C.
Experimental: as §1, §2

[3] = tested on: Rhodococcus rhodochrous J1; assay: Activity for 3-cyanopyridine, microorganism (comparison in basal medium); type: cell-based
Experimental: (§3) (1) For determination of the nitrile hydratase activity, a reaction mixture (2 ml) containing 3-cyanopyridine (1.0 M, 1.0 ml), potassium phosphate buffer (pH 7.0, 0.1 M, 0.5 ml) and 0.5 ml of cell suspension were incubated at 20° C. for 30 min with stirring. The reaction was stopped by addition of 0.2 ml of 3 N HCl. After centrifuging briefly, the nicotinamide formed was determined by means of HPLC (Shimadzu SPD 6A system using a C18 column (Develosil ODS-HG-5. […]); eluent: 10 mM KH2PO4/H3PO4 (pH 2.8)/acetonitrile 9:1 (v/v); flow rate: 1 ml/min; the absorption was measured at 230 nm). The specific activity was expressed as µmol of nicotinamide formed/ml/min/OD610 nm.
(§4) The reaction rates of aliphatic nitriles in the enrichment medium (Table 1) with isolated bacteria is summarized in Table 5, the effects of inducers and cofactors in the basal medium (Table 2) is summarized in Table 4 and the activity comparison of Amycolatopsis to Rhodoccus in the basal medium (Table 2) is summarized in Table 6.

[4] = tested on: Amycolatopsis NA40 (DSMZ 11617); assay: as above; type: cell-based
Experimental: as §3, §4

[5] = tested on: Rhodococcus rhodochrous J1; assay: Substrate specificity of the Rhodococcus strains; type: cell-based
Experimental: (§5) Rhodococcus rhodochrous J1 was cultured for 72 h in the medium described in EP-A 0 307 926. The microorganisms Rhodoccus GF674, GF578, GF270 and GF376 were cultured in the following media at pH 7.0 for up to 96 h:
(§6) The substrate specificity is summarized as relative activity in Table 15.

Rhodoccus GF674 = assay: Tolerance of 3-cyanopyridine on the activity of resting cells; type: cell-based, Rhodococcus GF674; details: substrate concentration of 4% (w/v), resting cells 15 min at 20° C.
Experimental: as §1, §2

[6] = tested on: Purified enzyme from NA40 (nitrile hydratase); assay: Activity for 3-cyanopyridine, purified enzyme; type: biochemical, Amycolatopsis NA40
Experimental: […] The reaction was stopped by addition of 0.2 ml of 3 N HCl. After centrifuging briefly, the nicotinamide formed was determined by means of HPLC (Shimadzu SPD 6A system using a C18 column (Develosil ODS-HG-5. […]); eluent: 10 mM KH2PO4/H3PO4 (pH 2.8)/acetonitrile 9:1 (v/v); flow rate: 1 ml/min; the absorption was measured at 230 nm). The specific activity was expressed as µmol of nicotinamide formed/ml/min/OD610 nm.
as §4

Rhodoccus GF578 = assay: Tolerance of 3-cyanopyridine on the activity of resting cells; type: cell-based, Rhodococcus GF578; details: up to a substrate concentration of 8%, resting cells 15 min at 20° C.
Experimental: as §1, §2

Rhodococcus GF578 = assay: Substrate specificity of the Rhodococcus strains; type: cell-based
Experimental: as §5
(§7) Rhodoccus GF674 in a medium comprising yeast extract 1.0 g/l, fructose 5.0 g/l, malt extract 10.0 g/l, acetamide 5.0 g/l, KH2PO4 2.0 g/l, MgSO47H2O 0.5 g/l and CoCl2.6H2O 10.0 mg. Rhodoccus GF578 in a medium containing yeast extract 1.0 g/l, fructose 15.0 g/l, malt extract 10.0 g/l, acetamide 25.0 g/l, KH2PO4 2.0 g/l, MgSO47H2O 0.5 g/l and CoCl2.6H2O 5.0 mg. […] Rhodoccus GF3 76 in a medium containing yeast extract 1.0 g/l, sodium citrate 10.0 g/l, malt extract 15.0 g/l, butyramide 7.5 g/l, KH2PO4 2.0 g/l, MgSO4.7H2O 0.5 g/l and CoCl2.6H2O 15.0 mg.
as §6

Rhodococcus GF674 = assay: Substrate specificity of the Rhodococcus strains; type: cell-based
Experimental: as §5, §7, §6

Rhodococcus GF270 = assay: Substrate specificity of the Rhodococcus strains; type: cell-based
Experimental: as §5, §7, §6

Rhodococcus GF376 = assay: Substrate specificity of the Rhodococcus strains; type: cell-based
Experimental: as §5, §7, §6

[7] = target: T1, Purified enzyme from J1 (nitrile hydratase) (Rhodococcus rhodochrous, UniProt P21219+P21220); assay: Activity for 3-cyanopyridine, purified enzyme; type: biochemical
T1 construct: host or cells: Rhodococcus rhodochrous J1 (native producer)

[8] = tested on: NA40 nitrile hydratase (resting NA40 cells); assay: Substrate specificity of resting NA40 cells; type: cell-based, Amycolatopsis NA40
Experimental: (3) For determination of the activity of NA40 with respect to a number of substrates, cells having a dry weight of 0.0388 mg were incubated in the buffer described above. The reaction was started by addition of the appropriate substrate and incubated at 20° C. with shaking for 10 min. The reaction was stopped by addition of 0.2 ml of 2 N HCl and the reaction mixture was briefly centrifuged. The supernatant was analysed by means of HPLC or gas chromatography.

Rhodoccus GF270 = assay: Tolerance of 3-cyanopyridine on the activity of resting cells; type: cell-based, Rhodococcus GF270; details: substrate concentration of 4% (w/v), resting cells 15 min at 20° C.
Experimental: as §1, §2

[9] = tested on: Actinomadura spadix E3736; assay: Conversion rates of aliphatic nitriles using the isolated bacteria (enrichment medium); type: cell-based
Experimental: (§8) a) Various soil samples were inoculated with various nitriles or amides as a C and N source in the enrichment medium according to Table 1 and incubated at 37° C. or 45° C. for 7 10 days. The cultures were then transferred to the same medium and again cultured at 37° C. for 7 10 days. The whole process was repeated 3 times. The cultures were then diluted and plated out in order to obtain individual colonies. The plates were incubated at 37° C. for 5 days. The different colonies were then tested for the desired activity.
(§9) […] as a C and N source for Amycolatopsis NE31 (DSMZ 11616) Actinomadura spadix E3733 and Actinomadura spadix E3736, azelanitrile served as a C and N source for Amycolatopsis NA40 (DSMZ 11617) and Actinomadura spadix 45A32, n-octanenitrile served as a C and N source for Actinomadura spadix 4501 and cyanoacetic acid served as a C and N source for Actinomadura spadix C15.
as §3, §4

[10] = tested on: Actinomadura spadix E3733; assay: as above; type: cell-based
Experimental: as §8, §9, §3, §4

[11] = tested on: Amycolatopsis NE31 (DSMZ 11616); assay: as above; type: cell-based
Experimental: as §8, §9, §3, §4

[12] = tested on: Amycolatopsis NA40 (DSMZ 11617); assay: as above; type: cell-based
Experimental: as §8, §9, §3, §4

[13] = tested on: Actinomadura spadix 45A32; assay: as above; type: cell-based
Experimental: as §8, §9, §3, §4

Actinomadura spadix C15 = assay: as above; type: cell-based
Experimental: as §8, §9, §3, §4

[14] = tested on: purified nitrile hydratase from NA40; assay: Substrate specificity of the purified nitrile hydratase; type: biochemical, Amycolatopsis NA40; details: pH 7
[15] = purified enzyme, 3-cyanopyridine = 100
[16] = Rhodococcus rhodochrous J1, 3-cyanopyridine = 100
[17] = Rhodococcus GF578, 3-cyanopyridine = 100
[18] = Rhodococcus GF674, 3-cyanopyridine = 100
[19] = Rhodococcus GF270, 3-cyanopyridine = 100
[20] = Rhodococcus GF376, 3-cyanopyridine = 100
[21] = resting NA40 cells, 20° C., 10 min, 3-cyanopyridine = 100, substrate concentration per Table 8

T1 sequence (P21219 2-203 limits assumed): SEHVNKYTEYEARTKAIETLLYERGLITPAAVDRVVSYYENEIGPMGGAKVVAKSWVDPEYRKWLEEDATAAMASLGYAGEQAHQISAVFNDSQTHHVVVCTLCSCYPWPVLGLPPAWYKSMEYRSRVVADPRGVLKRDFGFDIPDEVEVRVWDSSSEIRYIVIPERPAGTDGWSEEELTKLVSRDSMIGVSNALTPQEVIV
T1 sequence (P21220 whole entry): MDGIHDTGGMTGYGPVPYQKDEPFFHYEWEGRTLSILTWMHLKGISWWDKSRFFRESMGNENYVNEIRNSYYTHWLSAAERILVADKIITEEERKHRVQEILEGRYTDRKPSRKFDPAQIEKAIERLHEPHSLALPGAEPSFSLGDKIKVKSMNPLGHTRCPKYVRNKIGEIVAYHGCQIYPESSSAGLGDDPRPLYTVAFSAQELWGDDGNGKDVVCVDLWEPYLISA

SMILES: N#Cc1cccnc1 [3-Cyanopyridine]
- Km [1]: 41.7 mM
- nitrile hydratase activity decreased by the factor (Rhodoccus rhodochrous J1): 1.4
- Relative activity, Enzyme reaction [2, 15]: 100%
- nitrile hydratase activity decreased by the factor (Rhodoccus GF376): 1.25
- Activity for 3-cyanopyridine [3]: 314
- Activity for 3-cyanopyridine [4]: 303 µmol/mL/min
- relative activity (substrate specificity) [5, 16]: 100%
- nitrile hydratase activity decreased by the factor (Rhodoccus GF674): 1.4
- Activity for 3-cyanopyridine [6]: 1110 μmol/min/mg protein
- nitrile hydratase activity (Rhodoccus GF578): remained nearly constant
- relative activity (substrate specificity) (Rhodococcus GF578; [17]): 100%
- relative activity (substrate specificity) (Rhodococcus GF674; [18]): 100%
- relative activity (substrate specificity) (Rhodococcus GF270; [19]): 100%
- relative activity (substrate specificity) (Rhodococcus GF376; [20]): 100%
- Activity for 3-cyanopyridine [7]: 371 μmol/min/mg protein
- Relative activity [8, 21]: 100%
- nitrile hydratase activity decreased by the factor (Rhodoccus GF270): 1.17

SMILES: C=CC#N [Acrylonitrile]
- Km [1]: 3.7 mM
- Relative activity, Enzyme reaction [2, 15]: 94%
- relative activity (substrate specificity) [5, 16]: 478%
- relative activity (substrate specificity) (Rhodococcus GF578; [17]): 101%
- relative activity (substrate specificity) (Rhodococcus GF674; [18]): 147%
- relative activity (substrate specificity) (Rhodococcus GF270; [19]): 192%
- relative activity (substrate specificity) (Rhodococcus GF376; [20]): 257%
- Relative activity [8, 21]: 115%

SMILES: N#CCCCCC#N [Adiponitrile]
- Specific activity ([9]; strain E3736): 2.21 μmol/ml/min/OD
- Total activity ([9]; strain E3736): 3.00 µmol/mL/min
- Growth (OD610 nm) ([9]; strain E3736, nitrile as substrate in enrichment medium): 1.36 OD610 nm
- Specific activity ([10]; strain E3733): 0.214 μmol/ml/min/OD
- Total activity ([10]; strain E3733): 0.347 µmol/mL/min
- Growth (OD610 nm) ([10]; strain E3733, nitrile as substrate in enrichment medium): 1.62 OD610 nm
- Specific activity ([11]; strain NE31): 0.141 μmol/ml/min/OD
- Total activity ([11]; strain NE31): 0.377 µmol/mL/min
- Growth (OD610 nm) ([11]; strain NE31, nitrile as substrate in enrichment medium): 2.68 OD610 nm

SMILES: N#CCCCCCCCC#N [Azelanitrile]
- Specific activity ([12]; strain NA40): 5.57 μmol/ml/min/OD
- Total activity ([12]; strain NA40): 33.0 µmol/mL/min
- Growth (OD610 nm) ([12]; strain NA40, nitrile as substrate in enrichment medium): 5.92 OD610 nm
- Specific activity ([13]; strain 45A32): 3.23 μmol/ml/min/OD
- Total activity ([13]; strain 45A32): 18.8 µmol/mL/min
- Growth (OD610 nm) ([13]; strain 45A32, nitrile as substrate in enrichment medium): 5.81 OD610 nm

SMILES: N#CCC(=O)O [Cyanoacetic acid]
- Specific activity (Actinomadura spadix C15; strain C15): 3.43 μmol/ml/min/OD
- Total activity (Actinomadura spadix C15; strain C15): 7.01 µmol/mL/min
- Growth (OD610 nm) (Actinomadura spadix C15; strain C15, substrate in enrichment medium): 2.04 OD610 nm

SMILES: N#Cc1ccc(Cl)cc1 [p-Chlorobenzonitrile]
- Total activity [14]: 2.30 µmol/mL/min
- Relative activity, Enzyme reaction [2]: 13%
- relative activity (substrate specificity) [5]: 13%
- relative activity (substrate specificity) (Rhodococcus GF578): 0%
- relative activity (substrate specificity) (Rhodococcus GF674): 0%
- relative activity (substrate specificity) (Rhodococcus GF270): 0%
- relative activity (substrate specificity) (Rhodococcus GF376): 0%
- Relative activity [8]: 16%
